Laboratory results: patent US12569470B2, “Vasodilator and use thereof” (Bioradical Research Institute Corp., priority 2019, dated 2026)

Assays:
[1] = Water solubility noted at synthesis; format: physicochemical; settings: noted for the isolated crystal
Method: 3.58 g of 3-methyl-1-phenyl-5-pyrazolone (hereinafter also referred to as “edaravone”), 2.59 g of malonaldehyde dianilide hydrochloride, and 20 ml of ethanol were added to a reactor and dissolved. To the obtained solution, 2.04 g of triethylamine and 0.4 ml of water were added and stirred for 1 hour at room temperature (about 25° C.; hereinafter, the same applies). After the stirring, the resultant was further reacted for 1 hour at 50° C. After discharging the obtained reaction solution to 100 ml of 1N hydrochloric acid, the mixture was sufficiently stirred and the precipitate was filtered. The resulting cake was washed with water. The cake was added to 200 ml of an aqueous sodium hydroxide solution having a 1% by weight concentration and completely dissolved by heating with stirring. Next, the dissolved solution was stirred for 3 hours after cooling to room temperature. Then, the liquid containing the obtained precipitate was filtered, and then the cake was washed with water. […] Note that the melting point of ED2AP was 249° C., which was water-soluble.
3 ml of dimethylformamide was added to a reactor and the exterior of the reactor was cooled with ice water. 1.75 g of phosphorus oxychloride was slowly dropped into the reactor (Reaction Solution A). In another reactor, 1.78 g of edaravone was dissolved in 5 ml of dimethylformamide (Reaction Solution B). […]

rat neuroid cells B50 = assay: Cytoprotection against singlet oxygen (Rose Bengal + G-LED), Alamar Blue fluorescence; format: cell-based; settings: 0, 12.5, 25, 50, or 100 μmol/1, RB 200 nmol/1 + G-LED 5 minutes, negative control being 100, FIG. 3
Method: Edaravone, ED2AP and BisEp-C3 were examined for whether they had the function of alleviating neuronopathy. Specifically, singlet oxygen was generated by combining Rose Bengal (RB), which is a sensitizer, with green light (G-LED), and the function of alleviating the cytotoxicity of the generated singlet oxygen was examined with the cellular activity being an indicator.
First, rat neuroid cells B50 were cultured in 12-well dishes at 2×10^5 cells/well (medium: RPMI-1640 medium containing 5% FCS) overnight. After the culturing, the medium of each well was replaced with HBSS (1,000 μl/well; phenol red-free Ca+, Mg+) containing 200 nmol/1 RB and edaravone, ED2AP, or BisEp-C3 having a predetermined concentration (0, 12.5, 25, 50, or 100 μmol/1). The dish was then irradiated with G-LED for 5 minutes to generate singlet oxygen. Thereafter, the medium of each well was replaced with 1,000 μl of HBSS, and Alamar Blue was added. The dish was then allowed to react for about 2 hours in an incubator at 37° C. and 5%CO2. After the reaction, fluorescence intensity (excitation wavelength: λ- 560 nm, fluorescence wavelength: λ-595 nm) was measured with a plate reader (infinite200, Tecan Trading AG). In this experimental system, the higher the cellular activity, the more Alamar Blue is taken up and the higher the fluorescence intensity. As a control, fluorescence intensity was measured in the same manner except that sodium azide (Azide, NaN3) was added instead of the compounds so as to achieve a concentration of 4 mmol/1. As a negative control (NC), fluorescence intensity was measured in the same manner except that RB was not added. The relative value of the fluorescence intensity in the sample to which each compound was added was calculated with the fluorescence intensity of the negative control being 100.

[2] = tested on: superoxide produced by the neutrophils; assay: Superoxide production amount of PMA-stimulated neutrophils, CLA chemiluminescence; format: cell-based, human; settings: 0-200 or 0-5,000 μmol/1, PMA 100 ng/ml, 30 minutes, control being 100, FIG. 2
Method: For examining the reactive oxygen-eliminating effect of the vasodilator of the present invention, the superoxide produced by the neutrophils when the neutrophils isolated from the peripheral blood of healthy individuals were stimulated with PMA (phorbor-12-myristate-13-acetate) was used. The superoxide production amount was measured by chemiluminescence using CLA (2-methyl-6-phenyl-3, 7-dihydroimidazo[1,2-α]pyrazine-3-one).
First, ED2AP, BisEp-C3, edaravone, BisEp-C1, or BisEp-C1 (H2) was added to a neutrophil of 4×10^5 cells per sample so as to achieve a predetermined concentration (0, 12.5, 25, 50, 100, or 200 μmol/1, or 0, 125, 250, 500, 1,250, 2,500 or 5,000 μmol/1) with […] of CLA, and then the cell suspension was seeded in flat-bottomed 96-well plates. The volume of the suspension was 200 μl/well, and phenol red-free Ca+, Mg+ HBSS was used as the solution. […] After the stimulation, a plate reader (Envision 2104 Multilabel Reader produced by Perkin Elmer Co., Ltd.) was used to measure the chemiluminescence value over time for 30 minutes with the PMA stimulation time being a reference. […] In addition, as a control, the superoxide production amount was measured in the same manner except that each compound was not added. The relative value of the superoxide production amount when each compound was added was calculated with the superoxide production amount of the control being 100.

Row | solubility in water [1] | SMILES | relative value of the fluorescence intensity (rat neuroid cells B50) | relative value of the superoxide production amount [2]
1 | water-soluble | CCN1N=C(C)/C(=C\C=C\c2c(C)nn(CC)c2O)C1=O [BisEp-C3, 2,4-dihydro-4-[3-(1-ethyl-5-hydroxy-3-methyl-1H-pyrazol-4-yl)-2-propen-1-ylidene]-2-ethyl-5-methyl-3H-pyrazol-3-one] | recovered in a concentration-dependent manner | remarkably suppressed superoxide production amount
2 | water-soluble | CC1=NN(c2ccccc2)C(=O)/C1=C/C=C/c1c(C)nn(-c2ccccc2)c1O [ED2AP, 2,4-dihydro-4-[3-(5-hydroxy-3-methyl-1-phenyl-1H-pyrazol-4-yl)-2-propen-1-ylidene]-5-methyl-2-phenyl-3H-pyrazol-3-one] | recovered in a concentration-dependent manner | remarkably suppressed superoxide production amount
